Measured values as given in patent publication US20250188069A1, “COMPOUNDS AND METHODS FOR DEGRADING CASEIN KINASE 1 ALPHA” (PIN THERAPEUTICS, INC., priority 2022, published 2025).
Structures can show the parent of a compound that is named as a salt.

Test system: MV-4-11 cells
Assay: AML cell viability assay (RealTime-Glo)
Assay type: cell-based
Conditions: Homo sapiens, MV4-11, 44 h, read-out: Cell viability classification

Structure (SMILES)	IC50
CCCCCN(CCCCNC(=O)CCC)c1cccc2c1CN(C1CCC(=O)NC1=O)C2=O (stereo not drawn) [Compound 148, N-(4-((2-(2,6-dioxopiperidin-3-yl)-1-oxoisoindolin-4-yl)(pentyl)amino)butyl)butyramide]	100 to 1000 nM

Same assay, conditions: Homo sapiens, MV4-11; IC50 class; MV-4-11 cells, RealTime-Glo after 44 hrs of treatment (TABLE 1); read-out: Cell viability classification

Structure (SMILES)	IC50
N[C@H]1CC[C@H](N(CCc2ccccc2)c2cccc3c2CN(C2CCC(=O)NC2=O)C3=O)CC1 (stereo partly drawn) [Compound 247, 3-(4-(((1r,4r)-4-aminocyclohexyl)(phenethyl)amino)-1-oxoisoindolin-2-yl)piperidine-2,6-dione, HCl]	100 to 1000 nM
N[C@H]1CC[C@H](N(CCCC2CCCOC2)c2cccc3c2CN(C2CCC(=O)NC2=O)C3=O)CC1 (stereo partly drawn) [Compound 340, 3-(4-(((1r,4r)-4-aminocyclohexyl)(3-(tetrahydro-2H-pyran-3-yl)propyl)amino)-1-oxoisoindolin-2-yl)piperidine-2,6-dione, HCl]	100 to 1000 nM
N[C@H]1CC[C@H](N(CCCC2CCCCO2)c2cccc3c2CN(C2CCC(=O)NC2=O)C3=O)CC1 (stereo partly drawn) [Compound 341, 3-(4-(((1r,4r)-4-aminocyclohexyl)(3-(tetrahydro-2H-pyran-2-yl)propyl)amino)-1-oxoisoindolin-2-yl)piperidine-2,6-dione, HCl]	100 to 1000 nM
CCCN(CCCN)c1cccc2c1CN(C1CCC(=O)NC1=O)C2=O (stereo not drawn) [Compound 53, 3-(4-((3-aminopropyl)(propyl)amino)-1-oxoisoindolin-2-yl)piperidine-2,6-dione]	100 to 1000 nM
O=C1CCC(N2Cc3c(cccc3N(CCC3CC3)[C@@H]3CC[C@H](NCC4CC4)C3)C2=O)C(=O)N1 (stereo partly drawn) [Compound 355, 3-(4-((2-cyclopropylethyl)((1R,3S)-3-((cyclopropylmethyl)amino)cyclopenty 1)amino)-1-oxoisoindolin-2-yl)piperidine-2,6-dione]	< 100 nM

Same assay, conditions: Homo sapiens, MV4-11; IC50 class; MV-4-11 cells, RealTime-Glo after 44 hrs of treatment (TABLE 2); read-out: Cell viability classification

Structure (SMILES)	IC50
CC(C)(CCN)CCN(CCCCN)c1cccc2c1CN(C1CCC(=O)NC1=O)C2=O (stereo not drawn) [Compound 125, 3-(4-((5-amino-3,3-dimethylpentyl)(4-aminobutyl)amino)-1-oxoisoindolin-2-yl)piperidine-2,6-dione dihydrochloride]	100 to 1000 nM
NCCCCN(C[C@H]1CC[C@@H](N)CC1)c1cccc2c1CN(C1CCC(=O)NC1=O)C2=O (stereo partly drawn) [Compound 106, 3-(4-((4-aminobutyl)(((1s,4s)-4-aminocyclohexyl)methyl)amino)-1-oxoisoindolin-2-yl)piperidine-2,6-dione, 2HCl]	100 to 1000 nM
CCCCCN(C[C@H]1CC[C@@H](N)CC1)c1cccc2c1CN(C1CCC(=O)NC1=O)C2=O (stereo partly drawn) [Compound 91, 3-(4-((((1s,4s)-4-aminocyclohexyl)methyl)(pentyl)amino)-1-oxoisoindolin-2-yl)piperidine-2,6-dione, HCl]	< 100 nM
NCCCCN(c1cccc2c1CN(C1CCC(=O)NC1=O)C2=O)[C@H]1CC[C@H](N)CC1 (stereo partly drawn) [Compound 103, 3-(4-((4-aminobutyl)((1r,4r)-4-aminocyclohexyl)amino)-1-oxoisoindolin-2-yl)piperidine-2,6-dione, 2HCl]	100 to 1000 nM
CCCCCN(CCCCNC(=O)CC1CCCCC1)c1cccc2c1CN(C1CCC(=O)NC1=O)C2=O (stereo not drawn) [Compound 151, 2-cyclohexyl-N-(4-((2-(2,6-dioxopiperidin-3-yl)-1-oxoisoindolin-4-yl)(pentyl)amino)butyl)acetamide]	> 1000 nM
CCCCCN(CCCCNC(=O)CC(C)(C)C)c1cccc2c1CN(C1CCC(=O)NC1=O)C2=O (stereo not drawn) [Compound 150, N-(4-((2-(2,6-dioxopiperidin-3-yl)-1-oxoisoindolin-4-yl)(pentyl)amino)butyl)-3,3-dimethylbutanamide]	> 1000 nM
NCCCCN(CCCCN)c1cccc2c1CN(C1CCC(=O)NC1=O)C2=O (stereo not drawn) [Compound 96, 3-(4-(bis(4-aminobutyl)amino)-1-oxoisoindolin-2-yl)piperidine-2,6-dione dihydrochloride]	100 to 1000 nM
NCCCCN(CCCN)c1cccc2c1CN(C1CCC(=O)NC1=O)C2=O (stereo not drawn) [Compound 97, 3-(4-((4-aminobutyl)(3-aminopropyl)amino)-1-oxoisoindolin-2-yl)piperidine-2,6-dione dihydrochloride]	> 1000 nM
CCCCCN(CCCCNC(=O)NC)c1cccc2c1CN(C1CCC(=O)NC1=O)C2=O (stereo not drawn) [Compound 143, 1-(4-((2-(2,6-dioxopiperidin-3-yl)-1-oxoisoindolin-4-yl)(pentyl)amino)butyl)-3-methylurea]	100 to 1000 nM

Same assay, conditions: Homo sapiens, MV4-11; IC50 class; MV-4-11 cells, RealTime-Glo after 44 hrs of treatment (TABLE 3); read-out: Cell viability classification

Structure (SMILES)	IC50
C[C@H]1CC[C@@H](N(c2cccc3c2CN(C2CCC(=O)NC2=O)C3=O)[C@H]2CC[C@H](N)CC2)CC1 (stereo partly drawn) [Compound 331, 3-(4-(((1r,4R)-4-aminocyclohexyl)((1s,4S)-4-methylcyclohexyl)amino)-1-oxoisoindolin-2-yl)piperidine-2,6-dione]	> 1000 nM

Same assay, conditions: Homo sapiens, MV4-11; IC50 class; MV-4-11 cells, RealTime-Glo after 44 hrs of treatment (TABLE 4); read-out: Cell viability classification

Structure (SMILES)	IC50
N[C@H]1C[C@H](CN(CC2CC3(CCC3)C2)c2cccc3c2CN(C2CCC(=O)NC2=O)C3=O)C1 (stereo partly drawn) [Compound 558-2, 3-[1-oxo-4-({[(1r,3r)-3-aminocyclobutyl]methyl}({spiro[3.3]heptan-2-ylmethyl})amino)-3H-isoindol-2-yl]piperidine-2,6-dione]	< 100 nM
O=C1CCC(N2Cc3c(cccc3N(CCC3CC3)[C@H]3CC[C@@H](NCC4(C(F)(F)F)CCC4)CC3)C2=O)C(=O)N1 (stereo partly drawn) [Compound 614A, 3-{4-[(2-cyclopropylethyl)[(1s,4s)-4-({[1-(trifluoromethyl)cyclobutyl]methyl}amino)cyclohexyl]amino]-1-oxo-3H-isoindol-2-yl}piperidine-2,6-dione; trifluoro acetate]	> 1000 nM
O=C1CCC(N2Cc3c(ccc(F)c3N(CCC3CC3)[C@H]3CC[C@H](NCC4(C(F)(F)F)CC4)CC3)C2=O)C(=O)N1 (stereo partly drawn) [Compound 619, 3-(4-((2-cyclopropylethyl)(4-(((1-(trifluoromethyl)cyclopropyl)methyl)amino)cyclohexyl)amino)-5-fluoro-1-oxoisoindolin-2-yl)piperidine-2,6-dione]	100 to 1000 nM
O=C1CCC(N2Cc3c(N(CCC4CC4)[C@H]4CC[C@H](NCC5(C(F)(F)F)CC5)CC4)ccc(F)c3C2=O)C(=O)N1 (stereo partly drawn) [Compound 627, 3-{4-[(2-cyclopropylethyl)[(1r,4r)-4-({[1-(trifluoromethyl)cyclopropyl]methyl}amino)cyclohexyl]amino]-7-fluoro-1-oxo-3H-isoindol-2-yl}piperidine-2,6-dione]	> 1000 nM
O=C1CCC(N2Cc3c(cccc3N(CCCCC(F)(F)F)[C@H]3CC[C@H](NCC4(C(F)(F)F)CC4)CC3)C2=O)C(=O)N1 (stereo partly drawn) [Compound 628, 3-(1-oxo-4-{[(1r,4r)-4-({[1-(trifluoromethyl)cyclopropyl]methyl}amino)cyclohexyl](5,5,5-trifluoropentyl)amino}-3H-isoindol-2-yl)piperidine-2,6-dione; trifluoroacetate]	100 to 1000 nM
O=C1CCC(N2Cc3c(N(CCC4CC4)[C@H]4CC[C@@H](NCC5(C(F)(F)F)CC5)CC4)ccc(F)c3C2=O)C(=O)N1 (stereo partly drawn) [Compound 627A, 3-{4-[(2-cyclopropylethyl)[(1s,4s)-4-({[1-(trifluoromethyl)cyclopropyl]methyl}amino)cyclohexyl]amino]-7-fluoro-1-oxo-3H-isoindol-2-yl}piperidine-2,6-dione]	> 1000 nM
CCN(CC)C(=O)CN[C@H]1CC[C@H](N(CCC2CC2)c2cccc3c2CN(C2CCC(=O)NC2=O)C3=O)CC1 (stereo partly drawn) [Compound 562, N,N-diethyl-2-{[(1r,4r)-4-[(2-cyclopropylethyl)[2-(2,6-dioxopiperidin-3-yl)-1-oxo-3H-isoindol-4-yl]amino]cyclohexyl]amino}acetamide]	100 to 1000 nM
O=C1CCC(N2Cc3c(cccc3N(CCC3CC3)[C@H]3CC[C@@H](NCC4(F)CC4)CC3)C2=O)C(=O)N1 (stereo partly drawn) [Compound 612A, 3-{4-[(2-cyclopropylethyl)[(1s,4s)-4-{[(1-fluorocyclopropyl)methyl]amino}cyclohexyl]amino]-1-oxo-3H-isoindol-2-yl}piperidine-2,6-dione]	100 to 1000 nM

Same assay, conditions: Homo sapiens, MV4-11; IC50 class; MV-4-11 cells, RealTime-Glo after 44 hrs of treatment (TABLE 5); read-out: Cell viability classification

Structure (SMILES)	IC50
O=C1CCC(N2Cc3c(cccc3N(CCC3CC3)[C@H]3CC[C@H](NCCOC(F)(F)F)CC3)C2=O)C(=O)N1 (stereo partly drawn) [Compound 647]	< 100 nM
O=C1CCC(N2Cc3c(cccc3N(CCC3CC3)[C@H]3CC[C@H](N4CC[C@@H](C(F)(F)F)C4)CC3)C2=O)C(=O)N1 (stereo partly drawn) [Compound 713, 3-(4-((2-cyclopropylethyl)((1R,4r)-4-((R)-3-(trifluoromethyl)pyrrolidin-1-yl)cyclohexyl)amino)-1-oxoisoindolin-2-yl)piperidine-2,6-dione bis(2,2,2-trifluoroacetate)]	100 to 1000 nM
O=C1CCC(N2Cc3c(cccc3N(CCC3CC3)[C@H]3CC[C@H](NCCCC(F)(F)F)CC3)C2=O)C(=O)N1 (stereo partly drawn) [Compound 642]	< 100 nM
O=C1CCC(N2Cc3c(cccc3N(CCC3CC3)[C@H]3CC[C@@H](N4CCC5(C4)CC5(F)F)CC3)C2=O)C(=O)N1 (stereo partly drawn) [Compound 711A, 3-(4-((2-cyclopropylethyl)((1s,4s)-4-(1,1-difluoro-5-azaspiro[2.4]heptan-5-yl)cyclohexyl)amino)-1-oxoisoindolin-2-yl)piperidine-2,6-dione 2,2,2-trifluoroacetate]	> 1000 nM
O=C1CCC(N2Cc3c(cccc3N(CCC3CC3)[C@H]3CC[C@@H](N4CC[C@H](C(F)(F)F)C4)CC3)C2=O)C(=O)N1 (stereo partly drawn) [Compound 712A, 3-(4-((2-cyclopropylethyl)((1R,4s)-4-((S)-3-(trifluoromethyl)pyrrolidin-1-yl)cyclohexyl)amino)-1-oxoisoindolin-2-yl)piperidine-2,6-dione 2,2,2-trifluoroacetate]	> 1000 nM
CN1CCC(CN(CCC2CC2)c2cccc3c2CN(C2CCC(=O)NC2=O)C3=O)CC1 (stereo not drawn) [Compound 714, 3-(4-((2-cyclopropylethyl)((1-methylpiperidin-4-yl)methyl)amino)-1-oxoisoindolin-2-yl)piperidine-2,6-dione]	> 1000 nM
